According to patent publication US20250302975A1, “METHODS AND COMPOSITIONS FOR AGONISING TLR3” (priority 2024, published 2025):

Legend:
s.c. CT26 tumors = assay: CT26 colon cancer s.c. model, intratumoral treatment (Example 1); type: in vivo, BALB/c mice; details: i.t. treatment
Protocol: (§1) Female BALB/c and C57BL/6 mice (6-7 weeks old) were purchased from the Jackson Laboratory. All animal studies were approved by and conducted according to the regulation of the Institutional Animal Care and Use Committee of the University of California, San Diego. CT26 cells were administered via the intraperitoneal (i.p.) and subcutaneous (s.c.) routes. […] Treatments were administered three times at weekly intervals. The body circumference and weight were recorded for 40 days at 2-day intervals and mice were euthanized when the circumference reached ˜8 cm. To establish the CT26 colon cancer s.c. model, CT26 cells (1.5×10^5 cells in 15 μL PBS) were mixed with 15 μL Matrigel (Corning) and injected s.c. into the left flank of BALB/c mice. […] The tumor volumes, calculated using the equation tumor width^2×tumor length)/2, and body weight were recorded for 40 days at 2-day intervals and mice were euthanized when the tumor volume reached ˜1500 mm^3.

[1] = test system: CT26 tumors induced by i.p. inoculation; assay: CT26 colon cancer i.p. model, i.p. treatment (Example 1); type: in vivo, BALB/c mice; details: for tumor growth inhibition: i.p. treatment on days 3, 10 and 17, compared to PBS control
Protocol: as §1

[2] = test system: CT26 tumors induced by i.p. inoculation; details: reference [17]; cited from earlier work
RAW-Blue cells = RAW-Blue cells / Quanti-Blue SEAP assay, in vitro immunogenicity (Example 1); type: cell-based; set-up: dose or concentration left out as unconfirmed; details: 24 h
Protocol: RAW-Blue cells (InvivoGen) were grown in Dulbecco's Modified Eagle's Medium (DMEM) supplemented with 10% (v/v) heat-sterilized fetal bovine serum (FBS; Atlanta Biologicals) and 1% (v/v) penicillin/streptomycin (p/s; Thermo Fisher Scientific). Normocin ([…]) and zeocin ([…]) were also added according to the supplier's instructions (InvivoGen). CT26 cells obtained from the ATCC were grown in Roswell Park Memorial Institute (RPMI) 1640 medium and DMEM, respectively, each supplemented with 10% (v/v) FBS and 1% (v/v) p/s.
Lipopolysaccharide (LPS; InvivoGen) was used as a positive control. After the incubation, 20 μL of the supernatant was mixed with 180 μL of Quanti-Blue solution (InvivoGen) and incubated at room temperature for 6 h. The absorbance was then measured at 630 nm using a microplate reader (Tecan).

Compound: O=C1[O][Pt]2([NH][C@@H]3CCCC[C@H]3[NH]2)[O]C1=O [oxaliplatin]
- tumor volume (s.c. CT26 tumors; day 26): ~233 mm^3
- survival rate ([1]; compared to mice treated with CCMV or poly(I:C) alone): slightly increased the survival rate
- tumor growth inhibition [1]: significantly inhibited tumor growth

Compound: ODN1826
- impact on CT26 tumors (previous work) [2]: minimal impact

Compound: polyinosinic:polycytidylic acid [poly(I:C)]
- tumor growth by day 26 (s.c. CT26 tumors): 30 fold
- SEAP levels versus PBS-treated control (RAW-Blue cells): did not differ significantly
- tumor growth inhibition [1]: slight inhibitory effect, albeit not statistically significant
- body weight of CT26-bearing mice ([1]; weight gain is due to growth of the tumor): increased
